Structures are written as SMILES. Numbered stars: 1 amine (or outer) side, 2 acyl side, 3 side chain; on linkers, the order of the positions; unused ones are H or OH. Bridge positions count the residues as written; N and C are the ends. Square brackets hold non-standard residues; d marks the D form. Peptide text beside a SMILES is read from it. * marks the point of attachment. ξ: configuration not given here. Bip = N[C@@H](Cc1ccc(-c2ccccc2)cc1)C(=O)O; NH(CH2)14COOH = O=C(O)CCCCCCCCCCCCCCN*; Phe(3-Me) = Cc1cccc(C[C@H](N)C(=O)O)c1; NH(CH2)12COOH = O=C(O)CCCCCCCCCCCCN*; Val(3-OH) = CC(C)(O)[C@H](N)C(=O)O; 4Pal = N[C@@H](Cc1ccncc1)C(=O)O; X1 = O=C(CN1CCN([*:1])CC1)[*:2]; 3Thi = N[C@@H](Cc1ccsc1)C(=O)O; Cha = N[C@@H](CC1CCCCC1)C(=O)O; Cit = NC(=O)NCCC[C@H](N)C(=O)O; Ile(3ξ) = CCC(C)[C@H](N)C(=O)O; Thr(3ξ) = CC(O)[C@H](N)C(=O)O; 12Ado = NCCCCCCCCCCCC(=O)O; Carboxymethyl = O=C(O)C*; Orn = NCCC[C@H](N)C(=O)O; Aun = NCCCCCCCCCCC(=O)O; Dab = NCC[C@H](N)C(=O)O; Abu = CC[C@H](N)C(=O)O; Dap = NC[C@H](N)C(=O)O; AEEA = NCCOCCOCC(=O)O

What is called IC50 is the concentration needed to halve the response being measured.

T1 sequence (Q15116 25-288): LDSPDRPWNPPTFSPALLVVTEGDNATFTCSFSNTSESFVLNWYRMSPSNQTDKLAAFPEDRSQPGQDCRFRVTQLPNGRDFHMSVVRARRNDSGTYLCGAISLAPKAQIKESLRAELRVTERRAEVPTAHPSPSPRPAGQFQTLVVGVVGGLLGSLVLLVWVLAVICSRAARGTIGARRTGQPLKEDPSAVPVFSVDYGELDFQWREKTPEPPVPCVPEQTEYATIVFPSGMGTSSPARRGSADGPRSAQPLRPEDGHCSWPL

The experiment addresses T1, PD-1/PD-L1 interaction (PE-labeled human PD-L1-Ig binding to Jurkat cell line over-expressing human PD-1) (Homo sapiens, UniProt Q15116).
T1 construct: expressed in transfected cells; host or cells: Jurkat
The experiment in a line: Jurkat-PD-1 Cell Binding High-Content Screening Assay (CBA). The format is cell-based. The note with it: Jurkat cell line over-expressing human PD-1; PE-labeled PD-L1-Ig 20 nM final; read-out: Jurkat hPD1-PDL1 IC50. An outline of the steps:
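First, compound is added to PD-1-expressing Jurkat cells in serum-containing DMEM and left 2 h at 37° C. Next, PE-conjugated PD-L1-Ig is introduced at 20 nM final concentration for 1 hour. Finally, cells are fixed in 4% paraformaldehyde with Hoechst 33342, washed and imaged.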
On to `Cc1cccc(C[C@@H]2NC(=O)[C@H](CC(=O)O)NC(=O)[C@H](Cc3ccc(OCC(=O)O)cc3)NC(=O)[C@H](CCN)NC(=O)CSC[C@@H](C(=O)N[C@@H](CCN)C(=O)NCCOCCOCC(=O)NCCCCCCCCCCCCCCC(=O)O)NC(=O)[C@H](CO)NC(=O)[C@H](C(C)(C)O)NC(=O)[C@H](CC3CCCCC3)NC(=O)[C@H](Cc3c[nH]cn3)NC(=O)[C@@H](CC(C)C)NC(=O)[C@H](CCCN)NC(=O)[C@H](Cc3ccc(OCC(=O)O)cc3)NC(=O)[C@H](Cc3ccc(-c4ccccc4)cc3)NC(=O)[C@H](Cc3ccc(OCC(=O)O)cc3)NC2=O)c1` [Compound 2876] ({CH2CO}-[Dab]Y(Carboxymethyl)D[Phe(3-Me)]Y(Carboxymethyl)[Bip]Y(Carboxymethyl)[Orn][dL]H[Cha][Val(3-OH)]SC[Dab][AEEA]-{NH(CH2)14COOH}; thioether N-14), for which the half-maximal inhibitory concentration (IC50) stood at 0.212 µM.

In the case of `CC(C)C[C@H]1NC(=O)[C@H](CCCN)NC(=O)[C@H](Cc2ccc(O)cc2)NC(=O)[C@H](Cc2ccc(-c3ccccc3)cc2)NC(=O)[C@H](Cc2ccc(O)cc2)NC(=O)[C@H](Cc2c[nH]c3ccccc23)NC(=O)[C@H](CC(=O)O)NC(=O)[C@H](Cc2ccc(OCC(=O)O)cc2)NC(=O)[C@H](Cc2ccc(OCC(=O)O)cc2)NC(=O)CSC[C@@H](C(=O)N[C@@H](CCN)C(=O)NCCCCCCCCCCC(=O)O)NC(=O)[C@H](CCCN)NC(=O)[C@H](Cc2ccc(O)cc2)NC(=O)[C@H](CC2CCCCC2)NC(=O)[C@H](CCN)NC1=O` [Compound 2513] ({CH2CO}-Y(Carboxymethyl)Y(Carboxymethyl)DWY[Bip]Y[Orn][dL][Dab][Cha]Y[Orn]C[Dab][Aun]-OH; thioether N-14), the IC50 was found to be 0.0813 µM. As for `Cc1cccc(C[C@@H]2NC(=O)[C@H](CC(=O)O)NC(=O)[C@H](Cc3ccc(OCC(=O)O)cc3)NC(=O)[C@H](CN)NC(=O)CSC[C@@H](C(=O)N[C@@H](CCN)C(=O)N[C@@H](CO)C(=O)NCCCCCCCCCCCC(=O)O)NC(=O)[C@H](CCCN)NC(=O)[C@H](C(C)C)NC(=O)[C@H](CC3CCCCC3)NC(=O)[C@H](CCN)NC(=O)[C@@H](CC(C)C)NC(=O)[C@H](CCCN)NC(=O)[C@H](Cc3ccc(O)cc3)NC(=O)[C@H](Cc3ccc(-c4ccccc4)cc3)NC(=O)[C@H](C(C)C)NC2=O)c1` [Compound 3588] ({CH2CO}-[Dap]Y(Carboxymethyl)D[Phe(3-Me)]V[Bip]Y[Orn][dL][Dab][Cha]V[Orn]C[Dab]S[12Ado]-OH; thioether N-14), the IC50 came out at 0.0167 µM.

Turning to `Cc1cccc(C[C@@H]2NC(=O)[C@H](CC(=O)O)NC(=O)[C@H](Cc3ccc(OCC(=O)O)cc3)NC(=O)[C@H](CN)NC(=O)CSC[C@@H](C(=O)N[C@@H](CCCN)C(=O)NCCCCCCCCCCCCC(=O)O)NC(=O)[C@H](C(C)O)NC(=O)[C@H](C(C)C)NC(=O)[C@H](CC3CCCCC3)NC(=O)[C@H](CCN)NC(=O)[C@@H](CC(C)C)NC(=O)[C@H](CCCN)NC(=O)[C@H](CCCNC(N)=O)NC(=O)[C@H](Cc3ccc(-c4ccccc4)cc3)NC(=O)[C@H](C(C)C)NC2=O)c1` (stereo partly drawn) [Compound 3123] ({CH2CO}-[Dap]Y(Carboxymethyl)D[Phe(3-Me)]V[Bip][Cit][Orn][dL][Dab][Cha]V[Thr(3ξ)]C[Orn]-{NH(CH2)12COOH}; thioether N-14), the IC50 worked out at 0.0829 µM. With `Cc1cccc(C[C@@H]2NC(=O)[C@H](CC(=O)O)NC(=O)[C@H](Cc3ccc(OCC(=O)O)cc3)NC(=O)[C@H](CCCNC(=N)N)NC(=O)CSC[C@@H](C(=O)N[C@H](CC(N)=O)C(=O)NCCCCCCCCCCC(=O)O)NC(=O)[C@H](C(C)O)NC(=O)[C@H](C(C)C)NC(=O)[C@H](CC3CCCCC3)NC(=O)[C@H](CCN)NC(=O)[C@@H](CC(C)C)NC(=O)[C@H](CCCNC(N)=O)NC(=O)[C@H](Cc3ccc(OCC(=O)O)cc3)NC(=O)[C@H](Cc3ccc(-c4ccccc4)cc3)NC(=O)[C@H](Cc3ccc(OCC(=O)O)cc3)NC2=O)c1` (stereo partly drawn) [Compound 3498] ({CH2CO}-RY(Carboxymethyl)D[Phe(3-Me)]Y(Carboxymethyl)[Bip]Y(Carboxymethyl)[Cit][dL][Dab][Cha]V[Thr(3ξ)]C[dN][Aun]-OH; thioether N-14), the IC50 was 0.0472 µM. For `CC(C)C[C@@H]1NC(=O)[C@H](Cc2c[nH]c3ccccc23)NC(=O)[C@H](CC(=O)O)NC(=O)[C@H](Cc2ccncc2)NC(=O)[C@H](Cc2ccc(OCC(=O)O)cc2)NC(=O)CSC[C@@H](C(=O)N2CCN(CC(=O)NCCCCCCCCCCC(=O)O)CC2)NC(=O)[C@H](CCCNC(N)=O)NC(=O)[C@H](C(C)C)NC(=O)[C@H](CC2CCCCC2)NC(=O)[C@H](CCN)NC(=O)[C@@H](CC(C)C)NC(=O)[C@H](CCCN)NC(=O)[C@H](C(C)C)NC(=O)[C@H](Cc2ccc(-c3ccccc3)cc2)NC1=O` [Compound 1314] ({CH2CO}-Y(Carboxymethyl)[4Pal]DWL[Bip]V[Orn][dL][Dab][Cha]V[Cit]C[X1][Aun]-OH; thioether N-14), the IC50 is 0.11 µM.

As to `CCC(C)[C@@H]1NC(=O)[C@H](CC2CCCCC2)NC(=O)[C@H](CCN)NC(=O)[C@@H](CC(C)C)NC(=O)[C@H](CCCN)NC(=O)[C@H](C(C)CC)NC(=O)[C@H](Cc2ccc(-c3ccccc3)cc2)NC(=O)[C@H](C(C)CC)NC(=O)[C@H](Cc2c[nH]c3ccccc23)NC(=O)[C@H](CC(=O)O)NC(=O)[C@H](Cc2ccc(OCC(=O)O)cc2)NC(=O)[C@H](C(C)O)NC(=O)CSC[C@@H](C(=O)N[C@H](CC(N)=O)C(=O)NCCOCCOCC(=O)N[C@@H](Cc2c[nH]cn2)C(=O)NCCCCCCCCCCC(=O)O)NC(=O)[C@H](CO)NC1=O` (stereo partly drawn) [Compound 3119] ({CH2CO}-[Thr(3ξ)]Y(Carboxymethyl)DW[Ile(3ξ)][Bip][Ile(3ξ)][Orn][dL][Dab][Cha][Ile(3ξ)]SC[dN][AEEA]H[Aun]-OH; thioether N-14), the IC50 was determined as 0.0246 µM. As to `CC(C)C[C@H]1NC(=O)[C@H](CCCN)NC(=O)[C@H](C(C)C)NC(=O)[C@H](Cc2ccc(-c3ccccc3)cc2)NC(=O)[C@H](C(C)C)NC(=O)[C@H](Cc2c[nH]c3ccccc23)NC(=O)[C@H](CC(=O)O)NC(=O)[C@H](Cc2ccc(OCC(=O)O)cc2)NC(=O)[C@H](Cc2ccsc2)NC(=O)CSC[C@@H](C(=O)N[C@@H](CCCN)C(=O)NCCOCCOCC(=O)NCCCCCCCCCCCC(=O)O)NC(=O)[C@H](C(C)O)NC(=O)[C@H](C(C)C)NC(=O)[C@H](CC2CCCCC2)NC(=O)[C@H](CCN)NC1=O` (stereo partly drawn) [Compound 3168] ({CH2CO}-[3Thi]Y(Carboxymethyl)DWV[Bip]V[Orn][dL][Dab][Cha]V[Thr(3ξ)]C[Orn][AEEA][12Ado]-OH; thioether N-14), the IC50 was found to be 0.0736 µM.

Take `Cc1cccc(C[C@@H]2NC(=O)[C@H](CC(=O)O)NC(=O)[C@H](Cc3ccc(OCC(=O)O)cc3)NC(=O)[C@H](C)NC(=O)CSC[C@@H](C(=O)N[C@@H](CCN)C(=O)NCCOCCOCC(=O)NCCCCCCCCCCCCCCC(=O)O)NC(=O)[C@H](Cc3cnc[nH]3)NC(=O)[C@H](C(C)(C)O)NC(=O)[C@H](CC3CCCCC3)NC(=O)[C@H](CCN)NC(=O)[C@@H](CC(C)C)NC(=O)[C@H](CCCN)NC(=O)[C@H](Cc3ccc(OCC(=O)O)cc3)NC(=O)[C@H](Cc3ccc(-c4ccccc4)cc3)NC(=O)[C@H](Cc3ccc(OCC(=O)O)cc3)NC2=O)c1` [Compound 3851] ({CH2CO}-AY(Carboxymethyl)D[Phe(3-Me)]Y(Carboxymethyl)[Bip]Y(Carboxymethyl)[Orn][dL][Dab][Cha][Val(3-OH)]HC[Dab][AEEA]-{NH(CH2)14COOH}; thioether N-14): the IC50 is 0.125 µM. As to `CC(C)C[C@H]1NC(=O)[C@H](CCCN)NC(=O)[C@H](CCCNC(N)=O)NC(=O)[C@H](Cc2ccc(-c3ccccc3)cc2)NC(=O)[C@H](C(C)C)NC(=O)[C@H](Cc2c[nH]c3ccccc23)NC(=O)[C@H](CC(=O)O)NC(=O)[C@H](Cc2ccc(OCC(=O)O)cc2)NC(=O)[C@H](Cc2ccc(OCC(=O)O)cc2)NC(=O)CSC[C@@H](C(=O)NCCOCCOCC(=O)N[C@@H](CCN)C(=O)NCCCCCCCCCCC(=O)O)NC(=O)[C@H](CCCNC(=N)N)NC(=O)[C@H](C(C)C)NC(=O)[C@H](CC2CCCCC2)NC(=O)[C@H](CCN)NC1=O` [Compound 2655] ({CH2CO}-Y(Carboxymethyl)Y(Carboxymethyl)DWV[Bip][Cit][Orn][dL][Dab][Cha]VRC[AEEA][Dab][Aun]-OH; thioether N-14), the IC50 was 0.0094 µM. With `CC[C@@H]1NC(=O)CSC[C@@H](C(=O)N[C@@H](CCN)C(=O)NCCCCCCCCCCC(=O)O)NC(=O)[C@H](CCC(=O)O)NC(=O)[C@H](C(C)(C)O)NC(=O)[C@H](CC2CCCCC2)NC(=O)[C@H](CCN)NC(=O)[C@@H](CC(C)C)NC(=O)[C@H](CCCN)NC(=O)[C@H](Cc2ccc(OCC(=O)O)cc2)NC(=O)[C@H](Cc2ccc(-c3ccccc3)cc2)NC(=O)[C@H](Cc2ccc(OCC(=O)O)cc2)NC(=O)[C@H](Cc2cccc(C)c2)NC(=O)[C@H](CC(=O)O)NC(=O)[C@H](Cc2ccc(OCC(=O)O)cc2)NC1=O` [Compound 3794] ({CH2CO}-[Abu]Y(Carboxymethyl)D[Phe(3-Me)]Y(Carboxymethyl)[Bip]Y(Carboxymethyl)[Orn][dL][Dab][Cha][Val(3-OH)]EC[Dab][Aun]-OH; thioether N-14), the IC50 came to 0.0038 µM. Regarding `Cc1cccc(C[C@@H]2NC(=O)[C@H](CC(=O)O)NC(=O)[C@H](Cc3ccncc3)NC(=O)[C@H](Cc3ccc(OCC(=O)O)cc3)NC(=O)CSC[C@@H](C(=O)N[C@@H](CCN)C(=O)NCCOCCOCC(=O)NCCCCCCCCCCC(=O)O)NC(=O)[C@H](CCCN)NC(=O)[C@H](C(C)C)NC(=O)[C@H](CC3CCCCC3)NC(=O)[C@H](CCN)NC(=O)[C@@H](CC(C)C)NC(=O)[C@H](CCCN)NC(=O)[C@H](Cc3ccc(O)cc3)NC(=O)[C@H](Cc3ccc(-c4ccccc4)cc3)NC(=O)[C@H](C(C)C)NC2=O)c1` [Compound 2709] ({CH2CO}-Y(Carboxymethyl)[4Pal]D[Phe(3-Me)]V[Bip]Y[Orn][dL][Dab][Cha]V[Orn]C[Dab][AEEA][Aun]-OH; thioether N-14), the IC50 is 0.0084 µM.

(Values after US20260022142A1, “MACROCYCLIC IMMUNOMODULATORS” (Bristol-Myers Squibb Company, priority 2022, published 2026).)
